This is an account of results in patent publication US9206236B2, “Peptides for treating cancer” (Gene Signal International SA, priority 2010, dated 2015).

Experiment [1] deals with human microvascular endothelial cells (HMEC). In words: In vitro angiogenesis assay (Matrigel tube formation). In kind it is cell-based. The note with it: 500 μg/ml final concentration of peptide, images at 18 h. The protocol: Angiogenesis of human microvascular endothelial cells (HMEC) was induced in vitro using a Matrigel assay described by Al-Mahmood et al (2009, JPET, 2009; 58:933). This method is based on the differentiation of endothelial cells to form capillary structures on a Matrigel Matrix. Matrigel is prepared the Engelbreth-Holm-Swarm (EHS) mouse tumor, which represents a complex mixture of basement membrane proteins including type IV collagen, entactin, proteo-heparan sulfate and other growth factors.
Briefly, 250 μl of Matrigel were transferred to each well of a 24-well culture plate and incubated at 37° C. for 30 min to allow for the matrix solution to solidify. HMEC grown in complete growth medium EGM-2MV were harvested by trypsin, suspended in the same growth medium and 500 μl containing 70 000 cells were added on top of the solidified Matrigel in each well and in the presence or absence of peptide. Cells were maintained in a humidified atmosphere air containing 5% CO2 at 37° C. for 18-24 hrs. Endothelial tube formation was observed and photographed under an inverted light microscope.
The designed tyrosine phosphorylated and non phosphorylated peptides were tested for their influence onto the in vitro angiogenesis. The results of the in vitro angiogenesis assay were presented in FIG. 1, using HMEC and 500 μg/ml final concentration of each peptide.

The test system of the next experiment is NCI-H460 tumors. In words: NCI-H460 tumor xenograft in nude mice, tumor volume (Example 2). In kind it is in vivo. Here is the method: H460 cell line has cytology compatible with human Non-Small Cell Lung Cancer (NSCL). Cells were grown in MEM medium containing 10% FCS at 37° C., 5% CO2 humidified atmosphere. The absence of mycoplasms was confirmed by using the PCR Mycoplasma Detection kit (Takara). All experiments were reviewed by the Genopole's institutional animal care and use committee and were performed in accordance with institutional guidelines for animal care. Female BALB/c nu/nu mice (n=30) were used at 5-6 weeks of age. The animals were housed in laminar air-flow cabinets under pathogen-free conditions with a 12 h light/12 h dark schedule, and fed autoclaved standard chow and water ad libitum. The NCI-H460 human NSCL cell line was obtained from American Type Culture Collection (ATCC) and cells were grown in RPMI medium 1640 supplemented with 1 μM sodium pyruvate. Tumor cells (10^7 cells in 200 μl of HBSS) were injected subcutaneously into the right flanks of mice. After engraftment, tumor volume was measured by Vernier callipers, and calculated as described in Balsari A et al. (Balsari A et al. (2004) Eur J Cancer 40: 1275-1281). At tumor volume about 150 mm3, animals were randomized, and separated into five groups of five animals. Control mice (group 1) were intraperitoneally injected with vehicle (10% DMSO in buffer saline) every day. GS-0 was dissolved in vehicle and intraperitoneally injected (group 2) every day (12 injections). GS-1 was dissolved in vehicle and intraperitoneally injected (group 3) every day (12 injections). Tumor volume and body weight were measured every other day over the treatment period (12 days). GS-1 as well as the control peptide GS-0 were solubilized in DMSO and the resulting solutions were diluted 10 times with phosphate buffer saline (PBS) to obtain a concentration of 1 mg of peptide/ml of 10% DMSO in PBS. At this concentration, all peptides were soluble in 10% DMSO.

Experiment [2] concerns the target T1, recruitment of the regulatory subunit (p85) of the enzyme PI-3K by IRS-1 (Homo sapiens, UniProt P27986).
T1 construct: endogenous in cells; host or cells: human microvascular endothelial cells (HMEC)
In words: Recruitment of p85 of PI-3K by IRS-1 (IRS-1 immunoprecipitation, anti-p85 immunoblot) in HMEC. In kind it is cell-based. To be noted: final concentration of peptide 500 μg/ml. Here is the method:
Human EC grown in EGM-2MV (80% confluence) were incubated with the peptides of the invention or vehicle for the indicated time, washed three times in cold PBS and directly lysed in 2 ml of ice-cold lysis buffer (10 mM Tris pH 7.5, 150 mM NaCl, 1 mM PMSF, 0.5 μg/ml leupeptin, 1 μg/ml pepstatin A, and 1 μg/ml aprotinin) by incubation for 30 min at 4° C. Cell lysate were spun at […] for 10 min, insoluble materials were discarded, and protein contents measured by Bradford assay of supernatants were adjusted. Cell lysate (1 ml) was precleared with 25 μl of protein G-plus agarose beads (Santa Cruz) for 30 min, and proteins were then immunoprecipitated by adding 2 μg of the indicated antibody and incubated for 1 hr. The immunocomplex was pulled down with protein G-plus agarose beads and the beads were washed three times with lysis buffer. The immunoprecipitates were separated by NuPAGE® 4-12% Bis-Tris gel electrophoresis under reducing conditions, transferred to PVDF membrane (Novex System, Invitrogen), and the membrane was blocked with 5% (w/v) non-fat milk in TBS containing 0.1% v/v Tween-20 for 1 hr.
As it is widely admitted that the tyrosine phosphorylation of IRS-1 leads to its association with the regulatory subunit (p85) of the enzyme PI-3K, and this event lead to important increases in the enzymatic activity of this later, we have investigated the influence of the tyrosine phosphorylated and non phosphorylated peptides onto the recruitment of the regulatory subunit (p85) of the enzyme PI-3K by IRS-1. For that, human microvascular endothelial cells (HMEC) were incubated with the tyrosine phosphorylated and non phosphorylated peptides (final concentration of peptide 500 μg/ml) followed by cells lysis and immuoprecipitation of the protein IRS-1. The immunoprecipitates were then resolved in SDS-PAGE, proteins were transferred to membranes, and the membranes were immunoblotted with an anti-p85 PI3K monoclonal antibody.
(In general: Immunoblotting shows a protein as a band on a membrane.)

T1 sequence (P27986 whole entry): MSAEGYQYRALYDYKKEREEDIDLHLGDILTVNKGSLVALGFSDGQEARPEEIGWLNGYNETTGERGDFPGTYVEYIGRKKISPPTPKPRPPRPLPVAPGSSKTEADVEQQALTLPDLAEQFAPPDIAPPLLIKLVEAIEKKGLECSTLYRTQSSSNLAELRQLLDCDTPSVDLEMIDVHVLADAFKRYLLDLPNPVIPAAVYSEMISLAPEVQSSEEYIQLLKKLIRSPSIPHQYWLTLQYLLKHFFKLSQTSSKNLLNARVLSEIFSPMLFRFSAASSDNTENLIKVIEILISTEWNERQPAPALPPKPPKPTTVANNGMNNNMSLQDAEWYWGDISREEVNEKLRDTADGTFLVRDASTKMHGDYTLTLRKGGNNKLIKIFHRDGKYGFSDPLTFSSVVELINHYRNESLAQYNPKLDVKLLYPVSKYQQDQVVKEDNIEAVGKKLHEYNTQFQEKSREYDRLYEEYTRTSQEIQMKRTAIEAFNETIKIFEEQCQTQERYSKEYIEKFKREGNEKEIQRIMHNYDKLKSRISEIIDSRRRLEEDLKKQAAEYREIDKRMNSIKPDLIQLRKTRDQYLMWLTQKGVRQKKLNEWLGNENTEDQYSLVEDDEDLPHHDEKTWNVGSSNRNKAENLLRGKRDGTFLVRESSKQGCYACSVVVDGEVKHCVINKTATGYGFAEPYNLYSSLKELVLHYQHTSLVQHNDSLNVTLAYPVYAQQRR

As to “Ac-NYICMG-NH2 [GS-0, NYICMG, reference compound]”, in experiment [1], the “in vitro angiogenesis-inhibitory activity” value was “have not and/or negligible in vitro angiogenesis-inhibitory activity”. The “influence on the in vivo growth of the tumor NCI-H460 (in words)” value with NCI-H460 tumors (8 mg/kg i.p. daily for 12 days) was “no significant influence”. In addition, in the experiment on NCI-H460 tumors (8 mg/kg i.p. daily for 12 days, n=5), the “mean tumor volume at the end of treatment” value came to 1114.83 ± 534.50 mm^3. In the experiment on NCI-H460 tumors (Table 2, 8 mg/kg i.p. daily, day 1), this substance registered a Mean tumor volume D1 of 123 mm³. This substance displayed a Mean tumor volume D3 in the experiment on NCI-H460 tumors (Table 2, 8 mg/kg i.p. daily, day 3) of 233 mm³. Besides, the Mean tumor volume D5 with NCI-H460 tumors (Table 2, 8 mg/kg i.p. daily, day 5) was determined as 335 mm³. The Mean tumor volume D7 in the experiment with NCI-H460 tumors (Table 2, 8 mg/kg i.p. daily, day 7) stood at 402 mm³. Besides, the Mean tumor volume D9 in the experiment on NCI-H460 tumors (Table 2, 8 mg/kg i.p. daily, day 9) came to 553 mm³. The same substance showed a Mean tumor volume D11 with NCI-H460 tumors (Table 2, 8 mg/kg i.p. daily, day 11) of 751 mm³. Further, the Mean tumor volume D13 in the experiment with NCI-H460 tumors (Table 2, 8 mg/kg i.p. daily, day 13) was 1110 mm³. Moreover, the “influence onto the recruitment of the regulatory subunit (p85) of PI3K by IRS-1” value in experiment [2] is “no and/or negligible influence”.
